System: Escherichia coli No. 29 strain
Assay: Antimicrobial activity in vivo (ED50 in mice infected with Escherichia coli No. 29)
Details: mice (10 per group), i.p. infection with E. coli No. 29 (10^5 -10^6 cells/mouse) in mucin, compound oral one hour after infection, observed one week, Probit method, read-out: 50 % effective dose (ED50)
Method: Experiment (Antimicrobial activity in vivo)
Escherichia coli No. 29 strain was cultured in a nutrient medium at 37° C., and the culture broth was diluted with the same medium and thereto was added an equivolume of 6 % mucin solution to prepare a cell solution.
The cell solution thus prepared (0.5 ml) (e. coli cells; 10^5 -10^6 cells/mouse) was intraperitoneally administered to mice (10 mice per group). […] From the number of dead mice and the survival mice, the 50 % effective dose (ED50) of the test compound was calculated by Probit method.

Work on Cc1c(F)c(N2CCNC(C)C2)cc2c1c(=O)c(C=O)cn2C1CC1 (stereo not shown) [1-Cyclopropyl-6-fluoro-7-(3-methyl-1-piperazinyl)-5-methyl-3-formyl-1,4-dihydro-4-oxoquinoline] yielded an ED50 of 0.331 mg/kg.
